Assay [1] has as its system Streptococcus pyogenes. The experiment in a line: Antibacterial activity against penicillin-resistant Streptococcus pyogenes after 24 hrs by broth microdilution method. Type of assay: functional. A general note: Dilution methods test growth across graded concentrations, often in twofold steps.
The test system of assay [2] is Bacillus pumilus. The experiment in a line: Antibacterial activity against penicillin-susceptible Bacillus pumilus ATCC 63202 after 24 hrs by broth microdilution method. Type of assay: functional. The following applies: ATCC 63202, 24 h.
The test system of assay [3] is Escherichia coli. The assay can be described thus: Antibacterial activity against penicillin-susceptible Escherichia coli ATCC 25922 after 24 hrs by broth microdilution method. Type of assay: functional. To be noted: ATCC 25922, 24 h.
The subject of assay [4] is Staphylococcus aureus. The assay can be described thus: Potency index, ratio of ciprofloxacin MIC to test compound MIC for penicillin-susceptible Staphylococcus aureus ATCC 25923. Type of assay: functional.
Assay [5] concerns Staphylococcus aureus. The experiment in a line: Potency index, ratio of oxacillin sodium MIC to test compound MIC for penicillin-susceptible Staphylococcus aureus ATCC 25923. Type of assay: functional.
Assay [6] deals with Staphylococcus aureus. The assay can be described thus: Potency index, ratio of ciprofloxacin MIC to test compound MIC for methicillin-resistant Staphylococcus aureus ATCC 43300. The class given is functional.
Assay [7] relates to Staphylococcus aureus. The assay can be described thus: Potency index, ratio of oxacillin sodium MIC to test compound MIC for penicillin-resistant Staphylococcus aureus clinical isolate. The class given is functional.
Assay [8] concerns Staphylococcus epidermidis. The assay can be described thus: Potency index, ratio of ciprofloxacin MIC to test compound MIC for penicillin-resistant Staphylococcus epidermidis clinical isolate. The class given is functional.
The test system of assay [9] is Streptococcus pyogenes. The experiment in a line: Potency index, ratio of ciprofloxacin MIC to test compound MIC for penicillin-susceptible Streptococcus pyogenes. Type of assay: functional.
In assay [10] the test system is Bacillus subtilis. The experiment in a line: Potency index, ratio of ciprofloxacin MIC to test compound MIC for penicillin-susceptible Bacillus subtilis ATCC 9372. The class given is functional.
For assay [11], the system named is Bacillus pumilus. The experiment in a line: Potency index, ratio of ciprofloxacin MIC to test compound MIC for penicillin-susceptible penicillin-susceptible Bacillus pumilus ATCC 63202. The class given is functional.
In assay [12] the test system is Streptococcus pyogenes. The assay can be described thus: Potency index, ratio of ciprofloxacin MIC to test compound MIC for penicillin-resistant Streptococcus pyogenes. The class given is functional.
Assay [13] deals with Staphylococcus aureus. The assay can be described thus: Bactericidal activity against penicillin-susceptible Staphylococcus aureus ATCC 25923 assessed as bacterial levels at 8 ug/ml after 1 hr by time-kill assay (reference value: 6.13 to 6.14 log10CFU/ml). The class given is functional.
Assay [14] relates to Staphylococcus aureus. The assay can be described thus: Bactericidal activity against penicillin-susceptible Staphylococcus aureus ATCC 25923 assessed as bacterial levels at 32 ug/ml after 2 hrs by time-kill assay (reference value: 6.13 to 6.17 log10CFU/ml). Type of assay: functional.
Assay [15] concerns Staphylococcus aureus. The assay can be described thus: Bactericidal activity against penicillin-susceptible Staphylococcus aureus ATCC 25923 assessed as bacterial levels at 8 ug/ml after 2 hrs by time-kill assay (reference value: 6.13 to 6.17 log10CFU/ml). Type of assay: functional.
Assay [16] deals with Staphylococcus aureus. The experiment in a line: Bactericidal activity against penicillin-susceptible Staphylococcus aureus ATCC 25923 assessed as bacterial levels at 32 ug/ml after 12 hrs by time-kill assay (reference value: 6.13 to 8.01 log10CFU/ml). Type of assay: functional.
Assay [17] has as its system Staphylococcus aureus. The assay can be described thus: Bactericidal activity against penicillin-susceptible Staphylococcus aureus ATCC 25923 assessed as bacterial levels at 16 ug/ml after 24 hrs by time-kill assay (reference value: 6.13 to 8.34 log10CFU/ml). Type of assay: functional.
In assay [18] the target is T1, Cell division protein FtsZ (Bacillus subtilis) (UniProt A5Z1V5).
T1 sequence (whole entry): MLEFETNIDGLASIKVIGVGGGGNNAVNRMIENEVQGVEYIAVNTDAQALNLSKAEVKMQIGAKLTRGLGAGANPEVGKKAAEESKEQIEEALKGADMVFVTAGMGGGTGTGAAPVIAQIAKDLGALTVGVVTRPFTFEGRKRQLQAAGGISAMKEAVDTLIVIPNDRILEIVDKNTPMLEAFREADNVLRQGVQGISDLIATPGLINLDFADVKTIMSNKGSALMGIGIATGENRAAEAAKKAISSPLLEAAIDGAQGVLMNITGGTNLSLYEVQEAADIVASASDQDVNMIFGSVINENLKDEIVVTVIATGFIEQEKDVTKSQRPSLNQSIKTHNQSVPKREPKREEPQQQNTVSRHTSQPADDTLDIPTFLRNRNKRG
The experiment in a line: Inhibition of FtsZ in penicillin-susceptible Bacillus subtilis ATCC 9372 assessed as increase in length of bacteria at 0.125 ug/ml after 5 hrs by phase-contrast light microscopic method.

Calls of active or inactive are those of the source. No cut-off for these calls is given here.

By MIC is commonly meant the lowest concentration found to suppress growth. A lower MIC goes with inhibition by little substance. As to `Cc1cc(-c2ccc(C(F)(F)F)cc2)cc2c3ccccc3c[n+](C)c12.[Cl-]`, the values for the MIC in assay [1], in assay [2] and in assay [3] were 2 µg/mL, 0.06 µg/mL and over 64 µg/mL, respectively. For the same compound, the Ratio is reported as 133 in [4]; 67 in assay [5]; 64 in assay [6]; 256 in assay [7]; 512 in assay [8]; 8 in assay [9]. For the same compound, the values for the Ratio in [10], in assay [11] and in assay [12] were 33, 133 and 32, respectively. Further, the Activity in assay [13] is 6.05 log10CFU/ml; in assay [14] it was 5.18 log10CFU/ml; in assay [15] it was 6.06 log10CFU/ml; in assay [16], 0 log10CFU/ml; in [17], 0 log10CFU/ml. Also, the inhibition entry in assay [18] was “Active”.

These data come from ChEMBL document CHEMBL4118132, “Novel 5-methyl-2-phenylphenanthridium derivatives as FtsZ-targeting antibacterial agents from structural simplification of natural product sanguinarine” (2018).
